Results: PMC9229843, “Cancer-Related Somatic Mutations in Transmembrane Helices Alter Adenosine A1 Receptor Pharmacology” (Molecules, 2022)
Changes are numbered by the printed parent chain.

Columns and labels:
wild type hA1AR = target: T1, wild type hA1AR (Homo sapiens, UniProt P30542); settings: [35S]GTPγS; CPA at EC80; ratio over basal activity of wild type or mutant hA1AR
T1 sequence (P30542 1-326): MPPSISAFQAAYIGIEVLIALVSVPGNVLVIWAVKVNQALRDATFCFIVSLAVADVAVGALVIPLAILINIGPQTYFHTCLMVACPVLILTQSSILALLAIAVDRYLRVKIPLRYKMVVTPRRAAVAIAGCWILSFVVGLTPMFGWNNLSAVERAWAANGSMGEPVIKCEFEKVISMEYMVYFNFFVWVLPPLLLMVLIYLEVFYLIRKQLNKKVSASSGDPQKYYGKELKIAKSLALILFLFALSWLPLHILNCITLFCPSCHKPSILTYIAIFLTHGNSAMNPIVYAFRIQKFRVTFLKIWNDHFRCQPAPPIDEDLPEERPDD
Description: (§1) Transient transfection of CHO cells with wild type or mutated hA1AR plasmid constructs was performed using a polyethylenimine (PEI) method. Cells were seeded in 10-cm culture dishes to achieve 50–60% confluency 24 h prior to transfection. On the day of transfection, cells were transfected with a PEI: DNA ratio of 3:1 and a plasmid DNA amount of 10 μg/dish. Moreover, 24 h post-transfection, the medium was refreshed, and 48 h after transfection, cells were collected and membranes were prepared as previously described. Membranes were aliquoted in 250 or 100 μL and stored at −80 °C. Membrane protein concentrations were determined using the BCA method.
(§2) [^35S]GTPγS binding assays were adapted from a previously published method. […] Then, 20 µL of [^35S]GTPγS (final concentration of 0.3 nM) was added to each well, followed by 90 min of incubation at 25 °C. Incubations were terminated and filter-bound radioactivity was measured as described above.
(§3) All experimental data were analyzed by GraphPad Prism 7.0 or 8.0 (GraphPad Software Inc., San Diego, CA, USA). Data from yeast liquid growth and [^35S]GTPγS binding assays were analyzed by non-linear regression using “log (agonist) vs. response (three parameters)” or “log (inhibitor) vs. response (three parameters)” to obtain potency (EC50), inhibitory potency (IC50), and efficacy (Emax or Imax) values. The radioligand displacement curves were obtained from a statistically preferred one-site or two-site binding model. pKi values were calculated from pIC50 values using the Cheng–Prusoff equation, where KD values were obtained from the homologous competition assays from this study and calculated by non-linear regression using “one site–homologous” [62].

hA1AR W188C^5.46 = target: T2, hA1AR W188C^5.46 (Homo sapiens, UniProt P30542, W188C); settings: [35S]GTPγS; CPA at EC80; ratio over basal activity of wild type or mutant hA1AR
T2 sequence (P30542 1-326 W188C): T1 sequence (P30542 1-326) with W188C
Description: as §1, §2, §3

hA1AR G279S^7.44 = target: T3, hA1AR G279S^7.44 (Homo sapiens, UniProt P30542, G279S); settings: [35S]GTPγS; CPA at EC80; ratio over basal activity of wild type or mutant hA1AR
T3 sequence (P30542 1-326 G279S): T1 sequence (P30542 1-326) with G279S
Description: as §1, §2, §3

hA1AR H78L^3.23 [1] = target: T4, hA1AR H78L^3.23 (Homo sapiens, UniProt P30542, H78L); settings: [35S]GTPγS; CPA at EC80; ratio over basal activity of wild type or mutant hA1AR
T4 sequence (P30542 1-326 H78L): T1 sequence (P30542 1-326) with H78L
Description: as §1, §2, §3

hA1AR L134F^4.52 = target: T5, hA1AR L134F^4.52 (Homo sapiens, UniProt P30542, L134F); settings: [35S]GTPγS; CPA at EC80; ratio over basal activity of wild type or mutant hA1AR
T5 sequence (P30542 1-326 L134F): T1 sequence (P30542 1-326) with L134F
Description: as §1, §2, §3

hA1AR S246T^6.47 = target: T6, hA1AR S246T^6.47 (Homo sapiens, UniProt P30542, S246T); settings: [35S]GTPγS; CPA at EC80; ratio over basal activity of wild type or mutant hA1AR
T6 sequence (P30542 1-326 S246T): T1 sequence (P30542 1-326) with S246T
Description: as §1, §2, §3

hA1AR H78L^3.23 [2] = target: T4, hA1AR H78L^3.23; test: yeast liquid growth assay; format: cell-based; settings: result in words
Description: The plasmids, pDT-PGK_hA1AR, containing either wild type or mutated hA1AR were transformed into a MMY24 S. cerevisiae strain following the lithium acetate procedure.
In order to characterize the mutant hA1ARs, liquid growth assays in 96-well plates were performed to obtain concentration–growth curves as previously described. […] The overnight cultures were then diluted to 40,000 cells/mL (OD600 ≈ 0.02) in a selective medium without uracil, leucine, and histidine (YNB-ULH). For the determination of constitutive activity, 50 μL of yeast cells and 150 μL of YNB-ULH medium containing different concentrations of 3-AT and 0.8 IU/mL ADA were then added to each well. To obtain concentration–growth curves, 2 μL of various concentrations of ligands, 50 μL of yeast cells, and 150 μL of YNB-ULH medium containing 7 mM 3-AT and 0.8 IU/mL ADA were then added to each well. After incubation at 30 °C for 35 h in a Genios plate reader (TECAN, Zürich, Switzerland) with shaking for 1 min at 300 rpm every 10 min, the optical density was measured at a wavelength of 595 nm, which represented the level of yeast cell growth.
as §3

- Imax (wild type hA1AR): 0.67 ± 0.05
- Imax (hA1AR W188C^5.46): 0.74 ± 0.03
- Imax (hA1AR G279S^7.44): 0.65 ± 0.08
- Imax (hA1AR H78L^3.23 [1]): 0.83 ± 0.03
- Imax (hA1AR L134F^4.52): 0.68 ± 0.01
- Imax (hA1AR S246T^6.47): 0.70 ± 0.05
- reduction of constitutive activity by inverse agonist (hA1AR H78L^3.23 [2]): not reduced
SMILES: CCCn1c(=O)c2[nH]c(C3CCCC3)nc2n(CCC)c1=O [DPCPX, 8-cyclopentyl-1,3-dipropylxanthine]
